Laboratory results: patent US11596692B1 (Incyte Corporation, priority 2018, dated 2023)
Like-named read-outs stand apart in the source and are kept apart here.

System: IRF3
Assay: IRF3 activation assay in THP-1 Dual cells
Assay type: cell-based
Settings: Homo sapiens, read-out: THP1 IRF3 EC50
Experimental: THP-1 Dual Cells (Invivogen) were maintained in RPMI1640 medium with addition of 10% FBS, 100 μg/ml zeocin, 10 μg/ml blasticidin. Cells were added in a 96-well flat bottom assay plate at 100,000 per well in 100 μL complete RPMI medium. Test compounds were prepared by serial dilution in complete RPMI medium and 100 μL test compounds were transferred to each corresponding well. The assay plate was incubated at 37° C., 5% CO2 for 24 hours. After the overnight incubation, 20 μL of the culture supernatants were collected, followed by addition of 180 μL of QUANTI-Blue (Invivogen) to assess IRF3 activity. The amount of IRF3 activation was assessed by reading the absorbance at 620-655 nm with a microplate reader 2 hours later. The culture supernatant from the untreated THP-1 cells was used as the negative control. EC50 determination was performed by fitting the curve of percent control activity versus the log of the compound concentration using the GraphPad Prism 6.0 software.

SMILES	EC50 (THP-1, Table 4A) [nM]	EC50 (THP-1, Table 4B) [nM]	EC50 (THP-1, Table 4C) [nM]
CCn1nc(C)cc1C(=O)Nc1nc2cc(C(N)=O)cc(OCCCO)c2n1C/C=C/Cn1c2ccc(C(N)=O)cc2c2cnc(-c3cc(C)nn3CC)nc21 [Example S18, (E)-9-(4-(5-carbamoyl-2-(1-ethyl-3-methyl-1H-pyrazole-5-carboxamido)-7-(3-hydroxypropoxy)-1H-benzo[d]imidazol-1-yl)but-2-en-1-yl)-2-(1-ethyl-3-methyl-1H-pyrazol-5-yl)-9H-pyrimido[4,5-b]indole-6-carboxamide]	≤ 100	< 200	≤ 50
CCn1nc(C)cc1C(=O)Nc1nc2cc(C(N)=O)cc(C)c2n1C/C=C/Cn1c2ccc(C(N)=O)cc2c2cc(C#N)c(-c3cc(C)nn3CC)nc21 [Example S25, (E)-9-(4-(5-carbamoyl-2-(1-ethyl-3-methyl-1H-pyrazole-5-carboxamido)-7-methyl-1H-benzo[d]imidazol-1-yl)but-2-en-1-yl)-3-cyano-2-(1-ethyl-3-methyl-1H-pyrazol-5-yl)-9H-pyrido[2,3-b]indole-6-carboxamide]	100 to 500	< 1000	200 to 500
CCn1nc(C)cc1C(=O)Nc1nc2cc(C(N)=O)cc(C)c2n1C/C=C/Cn1c2ccccc2c2cnc(-c3cc(C)nn3CC)nc21 [Example S2, (E)-1-(4-(2-(1-ethyl-3-methyl-1H-pyrazol-5-yl)-9H-pyrimido[4,5-b]indol-9-yl)but-2-enyl)-2-(1-ethyl-3-methyl-1H-pyrazole-5-carboxamido)-7-methyl-1H-benzo[d]imidazole-5-carboxamide]	100 to 500	< 1000	200 to 500
CCn1nc(C)cc1C(=O)Nc1nc2cc(C(N)=O)cc(OCCCO)c2n1C/C=C/Cn1c2nc(-c3cc(C)nn3CC)ncc2c2cc(C(N)=O)cc(OCCCN3CCOCC3)c21 [Example S20, (E)-9-(4-(5-carbamoyl-2-(1-ethyl-3-methyl-1H-pyrazole-5-carboxamido)-7-(3-hydroxypropoxy)-1H-benzo[d]imidazol-1-yl)but-2-en-1-yl)-2-(1-ethyl-3-methyl-1H-pyrazol-5-yl)-8-(3-morpholinopropoxy)-9H-pyrimido[4,5-b]indole-6-carboxamide]	≤ 100	< 200	≤ 50

The remaining lines, values ahead:

EC50 (THP-1, Table 4A) [nM]	EC50 (THP-1, Table 4B) [nM]	EC50 (THP-1, Table 4C) [nM]	SMILES
–	–	≤ 50	CCn1nc(C)cc1C(=O)Nc1nc2cc(C(N)=O)cc(OC)c2n1C/C=C/Cn1c2nc(-c3cc(C)nn3CC)ncc2c2cc(C(N)=O)cc(OCCCNC(=O)OCCC(=O)O)c21 [Example S52, (E)-3-(3-(6-carbamoyl-9-(4-(5-carbamoyl-2-(1-ethyl-3-methyl-1H-pyrazole-5-carboxamido)-7-methoxy-1H-benzo[d]imidazol-1-yl)but-2-enyl)-2-(1-ethyl-3-methyl-1H-pyrazol-5-yl)-9H-pyrimido[4,5-b]indol-8-yloxy)propylcarbamoyloxy)propanoic acid]
–	–	50 to 200	CCn1nc(C)cc1C(=O)Nc1nc2cc(C(N)=O)cc(OCCCOC)c2n1C/C=C/Cn1c2nc(-c3cc(C)nn3CC)ncc2c2cc(C(N)=O)cc(OCCOCCOCCOCCC(=O)O)c21 [Example S59, (E)-3-(2-(2-(2-(6-carbamoyl-9-(4-(5-carbamoyl-2-(1-ethyl-3-methyl-1H-pyrazole-5-carboxamido)-7-(3-methoxypropoxy)-1H-benzo[d]imidazol-1-yl)but-2-enyl)-2-(1-ethyl-3-methyl-1H-pyrazol-5-yl)-9H-pyrimido[4,5-b]indol-8-yloxy)ethoxy)ethoxy)ethoxy)propanoic acid]
–	–	≤ 50	CCn1nc(C)cc1C(=O)Nc1nc2cc(C(N)=O)cc(OCCCO)c2n1C/C=C/Cn1c2ccc(C(N)=O)cc2c2cc(F)c(-c3cc(C)nn3CC)nc21 [Example S37, (E)-9-(4-(5-carbamoyl-2-(1-ethyl-3-methyl-1H-pyrazole-5-carboxamido)-7-(3-hydroxypropoxy)-1H-benzo[d]imidazol-1-yl)but-2-en-1-yl)-2-(1-ethyl-3-methyl-1H-pyrazol-5-yl)-3-fluoro-9H-pyrido[2,3-b]indole-6-carboxamide]
